Where two headings read alike, the source gives them in different places.
Tests used:
SARS-CoV-2 main protease = SARS-CoV-2 main protease (Severe acute respiratory syndrome coronavirus 2 (2019-nCoV) (SARS-CoV-2), UniProt P0DTD1); test: activity comparison of separated atropisomers (assay not given); settings: Isomer 1 versus Isomer 2 after chiral SFC separation; used to assign stereochemistry by analogy to Example 438
[1] = target: recombinant SARS-CoV-2 Main protease (Mpro) (Severe acute respiratory syndrome coronavirus 2 (2019-nCoV) (SARS-CoV-2), UniProt P0DTD1); test: Cov Mpro Biochemical IC50 Assay; settings: read-out: MPro IC50
SARS-CoV-2-NLuc = test: microbe, parasite or virus in culture; assay type: cell-based, SARS Coronavirus 2
[2] = recombinant SARS-CoV-2 Mpro 7.5 nM, fluorogenic peptide substrate 40 μM
[3] = Severe acute respiratory syndrome coronavirus, 48 h, read-out: MPro EC50
[4] = recombinant SARS-CoV-2 Mpro, fluorogenic peptide substrate
[5] = Severe acute respiratory syndrome coronavirus, 48 h; read-out: MPro EC50

| Compound | relative activity of the two separated isomers (SARS-CoV-2 main protease) | IC50 [1, 2] [nM] | EC50 (SARS-CoV-2-NLuc; read-out: MPro EC50) [nM] | EC50 (SARS-CoV-2-NLuc; [3]) [nM] | IC50 [1, 4] [nM] | EC50 (SARS-CoV-2-NLuc; [5]) [nM] |
| --- | --- | --- | --- | --- | --- | --- |
| COc1ccc2cncc(-n3c(=O)[nH]c4cc(-c5ccccc5Cl)sc4c3=O)c2c1 (single isomer, unassigned) [Example 440, 6-(2-chlorophenyl)-3-(6-methoxyisoquinolin-4-yl)thieno[3,2-d]pyrimidine-2,4(1H,3H)-dione] | more active isomer | < 3.94 | 13.4 | – | – | – |
| Cn1cc(-c2cccc(Cl)c2-c2cc3[nH]c(=O)n(-c4cncc5ccccc45)c(=O)c3s2)c(C(F)(F)F)n1 (single isomer, unassigned) [Example 447, 6-(2-chloro-6-(1-methyl-3-(trifluoromethyl)-1H-pyrazol-4-yl)phenyl)-3-(isoquinolin-4-yl)thieno[3,2-d]pyrimidine-2,4(1H,3H)-dione] | more active isomer | 4.21 | 6.58 | – | – | – |
| Cn1cnc(Cn2c(=O)n(-c3cncc4ccccc34)c(=O)c3sc(-c4ccccc4Cl)cc32)n1 (single isomer, unassigned) [Example 477, 6-(2-chlorophenyl)-3-(4-isoquinolyl)-1-[(1-methyl-1,2,4-triazol-3-yl)methyl]thieno[3,2-d]pyrimidine-2,4-dione] | more active isomer | 58 | 165 | – | – | – |
| COc1ccc(Cl)c(-c2cc3[nH]c(=O)n(-c4cncc5cccnc45)c(=O)c3s2)c1 (single isomer, unassigned) [Example 468, 6-(2-chloro-5-methoxyphenyl)-3-(1,6-naphthyridin-8-yl)thieno[3,2-d]pyrimidine-2,4(1H,3H)-dione] | more active isomer | < 2.54 | < 6.34 | – | – | – |
| COc1ccc(Cl)c(-c2ccc3c(=O)n(-c4cncc5ccccc45)c(=O)[nH]c3c2)c1 (single isomer, unassigned) [Example 475, 7-(2-chloro-5-methoxy-phenyl)-3-(4-isoquinolyl)-1H-quinazoline-2,4-dione] | more active isomer | 17.1 | 28.5 | – | – | – |
| O=c1[nH]c2cc(-c3ccccc3Cl)sc2c(=O)n1-c1cncc2ccc(N3CCOCC3)cc12 (single isomer, unassigned) [Example 442, 6-(2-chlorophenyl)-3-(6-morpholinoisoquinolin-4-yl)thieno[3,2-d]pyrimidine-2,4(1H,3H)-dione] | more active isomer | < 3.43 | 12.3 | – | – | – |
| O=c1[nH]c2cc(-c3ccccc3Cl)sc2c(=O)n1-c1cncc2cccnc12 (single isomer, unassigned) [Example 464, 6-(2-chlorophenyl)-3-(1,6-naphthyridin-8-yl)thieno[3,2-d]pyrimidine-2,4(1H,3H)-dione] | more active isomer | 4.68 | 11.5 | – | – | – |
| COc1ccc(Cl)c(-c2cc3[nH]c(=O)n(-c4cncc5ccccc45)c(=O)c3s2)c1 (single isomer, unassigned) [Example 465, 6-(2-chloro-5-methoxyphenyl)-3-(isoquinolin-4-yl)thieno[3,2-d]pyrimidine-2,4(1H,3H)-dione] | more active isomer | < 3.56 | 5.23 | – | – | – |
| COc1cnc(Cl)c(-c2cc3[nH]c(=O)n(-c4cncc5cccc(F)c45)c(=O)c3s2)c1 [Example 760] | – | 15.6 | – | 93.7 | – | – |
| O=c1[nH]c2cc(-c3c(Cl)cccc3CC3CCOCC3)sc2c(=O)n1-c1cncc2ccccc12 [Example 561, 6-[2-chloro-6-(tetrahydropyran-4-ylmethyl)phenyl]-3-(4-isoquinolyl)-1H-thieno[3,2-d]pyrimidine-2,4-dione] | – | 142 | – | 177 | – | – |
| COc1cc(-c2cc3[nH]c(=O)n(-c4cncc5ccc(=O)n(C)c45)c(=O)c3s2)c(Cl)cc1F [Example 712] | – | 6.85 | – | 12.4 | – | – |
| Cc1nccnc1COc1cccc(Cl)c1-c1ccc2c(=O)n(-c3cncc4ccccc34)c(=O)[nH]c2c1 [Example 94] | – | – | – | 269 | 210 | – |
| COc1cc(-c2cc3c(s2)c(=O)n(-c2cncc(Cl)c2)c(=O)n3CCC#N)c(C#N)cc1F [Example 866] | – | 5.61 | – | 12.9 | – | – |
| COc1cc(-c2cc3c(s2)c(=O)n(-c2cncc4ncc(C)n24)c(=O)n3CCC#N)c(Cl)cc1F [Example 952] | – | 10.9 | – | 16.2 | – | – |
| N#CCCn1c(=O)n(-c2cncc3nnn(C4CC4)c23)c(=O)c2sc(-c3ccc(F)cc3Cl)cc21 [Example 883] | – | 30.3 | – | 233 | – | – |
| COc1ccc(Cl)c(-c2cc3[nH]c(=O)n(-c4cncc5nc(C(F)(F)F)sc45)c(=O)c3s2)c1 [Example 487] | – | 908 | – | 742 | – | – |

| Compound | relative activity of the two separated isomers (SARS-CoV-2 main protease) | IC50 [1, 2] [nM] | EC50 (SARS-CoV-2-NLuc; read-out: MPro EC50) [nM] | EC50 (SARS-CoV-2-NLuc; [3]) [nM] | IC50 [1, 4] [nM] | EC50 (SARS-CoV-2-NLuc; [5]) [nM] |
| --- | --- | --- | --- | --- | --- | --- |
| Cc1ncccc1-c1cc2[nH]c(=O)n(-c3cncc4ccccc34)c(=O)c2s1 [Example 23] | – | – | – | 800 | 258 | – |
| COc1ccc(C#N)c(-c2cc3[nH]c(=O)n(-c4cncc5nc(C67CC(F)(C6)C7)n(C)c45)c(=O)c3s2)c1 [Example 437] | – | 535 | – | 10600 | – | – |
| COc1cc(-c2cc3c(s2)c(=O)n(-c2cncc4ccccc24)c(=O)n3C)c(Cl)cc1F [Example 993, 6-(2-chloro-4-fluoro-5-methoxy-phenyl)-3-(4-isoquinolyl)-1-methyl-thieno[3,2-d]pyrimidine-2,4-dione] | – | 5.63 | – | – | – | 4.38 |
| COc1cc(-c2cc3c(s2)c(=O)n(-c2cncc4cnn(C)c24)c(=O)n3CCC#N)c(Cl)cc1F (single isomer, unassigned) [Example 645, 3-[6-(2-chloro-4-fluoro-5-methoxy-phenyl)-3-(1-methylpyrazolo[4,3-c]pyridin-7-yl)-2,4-dioxo-thieno[3,2-d]pyrimidin-1-yl]propanenitrile] | – | 43.5 | 36 | – | – | – |
| O=c1[nH]c2cc(-c3ccccc3Cl)sc2c(=O)n1-c1cncc2sccc12 [Example 336] | – | – | – | 7.02 | 4.68 | – |
| COc1ccc(C#N)c(-c2cc3[nH]c(=O)n(-c4cncc5cnn(CC(F)(F)F)c45)c(=O)c3s2)c1 [Example 508] | – | 21.2 | – | 205 | – | – |
| N#CCCn1c(=O)n(-c2cncc(N3CCOCC3)c2)c(=O)c2sc(-c3ccccc3C#N)cc21 [Example 817] | – | > 1000 | – | – | – | > 1000 |
| COc1ccc(C#N)c(-c2ccc3c(=O)n(-c4cncc5ccc(N6CCOCC6)cc45)c(=O)[nH]c3c2)c1 [Example 431] | – | 10.5 | – | 71.3 | – | – |
| COc1cc(-c2cc3c(s2)c(=O)n(-c2cncc4nc(C(F)F)n(C)c24)c(=O)n3CCC#N)c(Cl)cc1F [Example 954] | – | 14.5 | – | 26 | – | – |
| O=C1NCc2c1cccc2-c1cccc(Cl)c1-c1ccc2c(=O)n(-c3cncc4ccccc34)c(=O)[nH]c2c1 [Example 193] | – | – | – | 65.6 | 7.69 | – |
| CCn1cc(-c2cccc(Cl)c2-c2ccc3c(=O)n(-c4cncc5ccccc45)c(=O)[nH]c3c2)c(C(F)(F)F)n1 [Example 281] | – | – | – | 39.5 | 71.8 | – |
| Cc1c2c(-n3c(=O)c4sc(-c5ccc(F)cc5Cl)cc4n(CCC#N)c3=O)cncc2nn1C [Example 797, 3-(6-(2-chloro-4-fluorophenyl)-3-(2,3-dimethyl-2H-pyrazolo[3,4-c]pyridin-4-yl)-2,4-dioxo-3,4-dihydrothieno[3,2-d]pyrimidin-1(2H)-yl)propanenitrile] | – | 34.6 | – | 108 | – | – |
| COc1cc(-c2cc3c(s2)c(=O)n(-c2cncc4ccccc24)c(=O)n3CC#N)c(Cl)cc1F (single isomer, unassigned) [Example 634, 2-[6-(2-chloro-4-fluoro-5-methoxy-phenyl)-3-(4-isoquinolyl)-2,4-dioxo-thieno[3,2-d]pyrimidin-1-yl]acetonitrile] | – | 29 | 31.2 | – | – | – |
| N#CCn1c(=O)n(-c2cncc3ccccc23)c(=O)c2sc(-c3ccc(F)cc3Cl)cc21 [Example 727] | – | 3.09 | – | 8.36 | – | – |
| COc1cc(-c2cc3c(s2)c(=O)n(-c2cncc4nn(C)c(C)c24)c(=O)n3CCC#N)c(Cl)cc1F (single isomer, unassigned) [Example 1042, 3-(6-(2-chloro-4-fluoro-5-methoxyphenyl)-3-(2,3-dimethyl-2H-pyrazolo[3,4-c]pyridin-4-yl)-2,4-dioxo-3,4-dihydrothieno[3,2-d]pyrimidin-1(2H)-yl)propanenitrile] | – | > 1000 | > 1000 | – | – | – |
| O=c1[nH]c2cc(-c3c(Cl)cccc3Cl)sc2c(=O)n1-c1cncc(C2CC2)c1 [Example 370, 3-(5-cyclopropylpyridin-3-yl)-6-(2,6-dichlorophenyl)thieno[3,2-d]pyrimidine-2,4(1H,3H)-dione] | – | – | – | – | 273 | 388 |
